How the values were obtained:
[1] = test system: liver cancer cells (HepG2); assay: growth of liver cancer cells (HepG2) over time as a function of xanthohumol dosage (FIG. 5); format: cell-based; settings: HepG2, increasing concentrations of xanthohumol, pure form (>98%)
hepatic stellate cells = assay: transformation of quiescent hepatic stellate cells to activated hepatic stellate cells (FIGS. 6 and 7); format: cell-based; settings: hepatic stellate cell activation, increasing dosage of xanthohumol
Source text: FIGS. 6 and 7 illustrate the effect of addition of xanthohumol for the prevention of transformation of the body's own physiologically “quiescent” (non-activated) hepatic stellate cells to activated hepatic stellate cells.
FIGS. 6 and 7 illustrate the effect of addition of xanthohumol for the prevention of transformation of the body's own, physiologically “quiescent” (non-activated) hepatic stellate cells to activated hepatic stellate cells, which are responsible for scarring of the liver in cirrhosis of the liver.

[2] = test system: activated hepatic stellate cells; assay: destruction (LDH) of activated hepatic stellate cells (FIG. 8); format: cell-based; settings: increasing dosage of xanthohumol
liver cells = assay: in vitro tests of fat accumulation (steatosis) in liver cells; format: cell-based
Source text: Another effective method of preventing NASH 102 can be performed by inhibiting inflammation 108 of the liver even when eating a high fat diet. Another effective method of preventing NASH 102 can be performed by inhibiting fibrosis 110 of the liver even when eating a high fat diet. […] Inhibition of fat accumulation, inflammation, and/or fibrosis can also be an effective treatment for slowing down or preventing further progression of the liver disease state (including NASH). […] Inhibition of the reception of fatty acids into liver cells was determined in vitro tests and in vivo experiments.

male C57BL/6N mice = assay: high fat diet (NASH-inducing diet) feeding study in mice, 20 weeks (FIGS. 13-15); format: in vivo; settings: 500 mg/kgBW
Source text: (§1) In vivo studies correlate with the in vitro studies. FIGS. 13-18 show comparative graphs of in vivo experimental data showing the effectiveness of xanthohumol when eating a high fat diet. The experiments involved using male C57BL/6N mice purchased from Charles River Laboratories (Sulzfeld, Germany). After two weeks of acclimatization, the mice were fed either standard diet (CTR), standard diet with xanthohumol (XN), high fat diet without providing xanthohumol (HFD), or high fat diet and xanthohumol (HFD+XN). High fat diet in the experiments included a NASH-inducing diet which includes sucrose, cholesterol, and fats rich in saturated fatty acids. In detail, the high fat diet included pork lard (15%), beef tallow (15%), palmitic acid (4%), stearic acid (4%), cholesterol (0.2%), and sucrose (30%). The feeding lasted for 20 weeks. Each experimental group had six mice. The XN and HFD+XN mice were provided with 500 mg of xanthohumol per kg of body weight (kgBW).

[3] = test system: proinflammatory cytokine tumor necrosis factor (TNF) mRNA; assay: hepatic TNF mRNA expression in high fat diet mouse study (FIG. 16); format: in vivo; settings: 500 mg/kgBW, 20 weeks
Source text: as §1
The TNF measurement is an indicator of inflammation in the liver. The mice that ate high fat diet (HFD) had the highest level of TNF mRNA. […] The reduction was by more than 50% of the HFD mice, such that the TNF mRNA of the HFD+XN mice had nearly the same TNF mRNA level as the control mice (CTR). […]

[4] = test system: Collagen Type I (Coll-I) mRNA; assay: hepatic Coll-I mRNA expression in high fat diet mouse study (FIG. 17); format: in vivo; settings: 500 mg/kgBW, 20 weeks
Source text: as §1
(§2) FIGS. 17 and 18 show charts of the detected measurement of hepatic mRNA expressions of Collagen Type I (Coll-I) and profibrogenic factor tissue inhibitor of metalloproteinases 1 (TIMP-1), respectively, of the mice from the experiments (*: p<0.05; normalized so that CTR is set to 1). These methodologies are established markers detecting hepatic fibrosis (e.g., fibrosis of the liver). […]

[5] = test system: tissue inhibitor of metalloproteinases 1 (TIMP-1) mRNA; assay: hepatic TIMP-1 mRNA expression in high fat diet mouse study (FIG. 18); format: in vivo; settings: 500 mg/kgBW, 20 weeks
Source text: as §1, §2

[6] = test system: liver cells infected with hepatitis C (HUH7 HCV replicon); assay: efficacy on liver cells infected with hepatitis C vs non-infected liver cells (FIGS. 2 and 3); format: cell-based
Source text: Thus, use of the invention allows a targeted therapy for reduction or elimination of liver cells infected with the virus.

[7] = standard diet with xanthohumol (XN)
[8] = standard diet with xanthohumol (XN), mice

COc1cc(O)c(CC=C(C)C)c(O)c1C(=O)/C=C/c1ccc(O)cc1 [xanthohumol]
growth of the cancer cells [1]: progressively inhibited | formation of scar tissue (hepatic stellate cells): increasingly suppressed | destruction (LDH) of activated hepatic stellate cells [2]: increased effect of destruction | viability of the liver cells (liver cells; in vitro): does not affect the viability | reception of fatty acids into liver cells (formation of steatosis) (liver cells; in vitro tests and in vivo experiments): directly inhibits | fatty degeneration of liver cells (liver cells; in vitro, increased amount of xanthohumol): lessens fatty degeneration | reduction of ALT level compared to HFD mice (male C57BL/6N mice; HFD+XN): ~50% | reduction of hepatic TG (mg(TG)/mg(protein)) compared to high fat diet without xanthohumol (male C57BL/6N mice; HFD+XN): more than 50% | ALT level (male C57BL/6N mice; [7]): lowest detected levels | hepatic TG (mg(TG)/mg(protein)) level (male C57BL/6N mice; [7]): lowest detected levels | reduction of TNF mRNA compared to HFD mice ([3]; HFD+XN): more than 50% | TNF mRNA level [3, 8]: lowest detected levels | hepatic Coll-I mRNA compared to HFD mice ([4]; HFD+XN): substantial reductions | hepatic Coll-I mRNA level [4, 8]: about the same as the control mice | hepatic TIMP-1 mRNA compared to HFD mice ([5]; HFD+XN): substantial reductions | hepatic TIMP-1 mRNA level [5, 8]: about the same as the control mice | destruction of liver cells affected by the virus vs healthy liver cells ([6]; healthy liver cells left undamaged): selective destruction | replication of the virus ([6]; hepatitis B and C viral damage to the liver): inhibit replication of the virus
